Broadly, the IC50 is the point on the concentration scale where inhibition reaches its midpoint.

The structures appear in SMILES notation. Where only a bound is given, the exact number is not on record here.

The first test addresses T1, Recombinant human cathepsin A (Homo sapiens, UniProt P10619).
T1 construct: Recombinant human cathepsin A (residues 29-480, with a C-terminal 10-His tag); 10-His (C); purchased R&D Systems 1049-SE
T1 sequence (P10619 29-312 limits assumed): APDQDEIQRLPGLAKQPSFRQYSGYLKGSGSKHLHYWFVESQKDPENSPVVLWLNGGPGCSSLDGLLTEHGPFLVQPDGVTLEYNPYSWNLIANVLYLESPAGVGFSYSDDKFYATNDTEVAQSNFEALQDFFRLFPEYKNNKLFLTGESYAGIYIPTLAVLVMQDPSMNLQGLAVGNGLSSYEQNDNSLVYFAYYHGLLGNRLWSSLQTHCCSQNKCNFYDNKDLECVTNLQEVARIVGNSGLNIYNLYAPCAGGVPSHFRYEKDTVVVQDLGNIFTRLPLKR
T1 sequence (P10619 327-480 limits assumed): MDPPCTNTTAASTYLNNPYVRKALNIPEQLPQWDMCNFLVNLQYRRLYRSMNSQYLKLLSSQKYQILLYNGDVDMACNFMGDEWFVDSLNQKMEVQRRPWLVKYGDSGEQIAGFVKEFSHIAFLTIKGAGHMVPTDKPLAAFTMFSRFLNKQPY
Kind of test: Cathepsin A inhibitory activity. The class given is biochemical. As to conditions: pharmacological test "Cathepsin A inhibitory activity"; IC50 given as class A/B/C; read-out: Activity (2): Cathepsin A inhibitory activity, IC50 class. An outline of the steps: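 Read-out was microfluidic separation of cleaved vs. uncleaved Bodipy FL-bradykinin (2 μM), giving turnover, % inhibition and IC50. Compound and 833 ng/ml enzyme met for 15 min RT in pH 5.5 MES/DTT before substrate (15 min RT). The 29-480 His-tagged human enzyme was first activated by cathepsin L, then E-64 (10 μM).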
As for `O=C(O)C[C@H](NC(=O)c1cc(O)n(-c2ccccc2Cl)n1)c1ccc(F)cc1` [Example 211], the half-maximal inhibitory concentration (IC50) fell in the range of 100 to 1000 nM.
As to `COc1cccc(-c2ccc(C(CC(=O)O)NC(=O)c3cc(O)n(-c4ccccc4F)n3)cc2)c1` (stereo not shown) [Example 156], the IC50 lay in the range of 100 to 1000 nM.
For `COc1ccccc1[C@H](CC(=O)O)NC(=O)c1cc(O)n(-c2ccc(F)cc2F)n1` [Example 177], the half-maximal inhibitory concentration (IC50) lay in the range of 100 to 1000 nM.
As to `O=C(O)CC(NC(=O)c1cc(O)n(-c2ccccc2F)n1)c1ccc(C(F)(F)F)cc1F` (stereo not shown) [Example 238], the half-inhibitory concentration (IC50) lay in the range of 100 to 1000 nM.
For `O=C(O)CC(NC(=O)c1cc(O)n(-c2ccccc2F)n1)c1ccc(Cl)cc1F` (stereo not shown) [Example 243], the half-inhibitory concentration (IC50) fell in the range of 100 to 1000 nM.
With `O=C(O)C[C@H](NC(=O)c1cc(O)n(-c2cccc(Cl)c2)n1)c1cccc(C(F)(F)F)c1` [Example 259], the concentration for half-maximal inhibition (IC50) was 1000 to 30000 nM.
Consider `O=C(O)C[C@H](NC(=O)c1cc(O)n(-c2ccc(F)cc2F)n1)c1cccc(Cl)c1` [Example 184], for which the 50% inhibitory concentration (IC50) is 100 to 1000 nM.

The test is the same for the next values; noted with them: read-out: Activity (2): Cathepsin A inhibitory activity (IC50 class).
As for `Cc1ccccc1[C@H](CC(=O)O)NC(=O)c1cc(OC[C@H](O)C(C)(C)C)n(-c2ccccc2F)n1` (single isomer, unassigned) [Example 745], the half-maximal inhibitory concentration (IC50) is under 100 nM.
As for `COc1cc(C(=O)N[C@@H](CC(=O)O)c2ccccc2)nn1-c1ccccc1F` [Example 665], the IC50 is under 100 nM.
Turning to `O=C(O)CC(NC(=O)c1cc(O)n(-c2ccccc2Cl)n1)c1ccc(-c2ccccc2F)cc1` (stereo not shown) [Example 585, 3-{[1-(2-Chloro-phenyl)-5-hydroxy-1H-pyrazole-3-carbonyl]-amino}-3-(2′-fluoro-biphenyl-4-yl)-propionic acid], the IC50 was in the range of 100 to 1000 nM.
Regarding `COc1cc(C(=O)NC(CC(=O)O)c2ccc(-c3ccccn3)cc2)nn1-c1ccccc1` (stereo not shown) [Example 597, 3-[(5-Methoxy-1-phenyl-1H-pyrazole-3-carbonyl)-amino]-3-(4-pyridin-2-yl-phenyl)-propionic acid], the IC50 was 100 to 1000 nM.
On to `O=C(O)CC(NC(=O)c1cc(O)n(-c2ccccc2)n1)c1ccc(-n2cncn2)cc1` (stereo not shown) [Example 563, 3-[(5-Hydroxy-1-phenyl-1H-pyrazole-3-carbonyl)-amino]-3-(4-[1,2,4]triazol-1-yl-phenyl)-propionic acid], for which the IC50 is 1000 to 30000 nM.
As to `O=C(O)CC(NC(=O)c1cc(O)n(-c2ccccc2F)n1)c1ccc(N2CCCC2)cc1` (stereo not shown) [Example 566, 3-{[1-(2-Fluoro-phenyl)-5-hydroxy-1H-pyrazole-3-carbonyl]-amino}-3-(4-pyrrolidin-1-yl-phenyl)-propionic acid], the IC50 lay in the range of 1000 to 30000 nM.
`COc1cc(C(=O)NC(CC(=O)O)c2cccc(C)c2C)nn1-c1ccccc1F` (stereo not shown) [Example 682, 3-(2,3-Dimethyl-phenyl)-3-{[1-(2-fluoro-phenyl)-5-methoxy-1H-pyrazole-3-carbonyl]-amino}-propionic acid]: the IC50 is under 100 nM.
Regarding `COc1cc(C(=O)N[C@@H](CC(=O)O)c2ccccc2C(F)(F)F)nn1-c1ccccc1F` [Example 680, (S)-3-{[1-(2-Fluoro-phenyl)-5-methoxy-1H-pyrazole-3-carbonyl]-amino}-3-(2-trifluoromethyl-phenyl)-propionic acid], the IC50 fell in the range of 100 to 1000 nM.
On the same count and under the same terms, the figure for `CCOc1cc(C(=O)N[C@@H](CC(=O)O)c2ccc(C#N)cc2)nn1-c1ccccc1Cl` [Example 730] is 100 to 1000 nM.

The same test, now with this note: read-out: Activity (2): Cathepsin A inhibitory activity, IC50 class.
`CC(C)C(C)(O)COc1cc(C(=O)N[C@@H](CC(=O)O)c2c(F)cccc2F)nn1-c1ccccc1F` (stereo partly drawn) [Example 808, (S)-3-(2,6-Difluoro-phenyl)-3-{[1-(2-fluoro-phenyl)-5-(2-hydroxy-2,3-dimethyl-butoxy)-1H-pyrazole-3-carbonyl]-amino}-propionic acid]: the IC50 was under 100 nM.
Regarding `O=C(O)CC(NC(=O)c1cc(O)n(-c2ccc(F)cc2)n1)c1ccc(-c2ccccc2)cc1` (stereo not shown) [Example 365], the IC50 was 100 to 1000 nM.
`O=C(O)CC(NC(=O)c1cc(O)n(-c2cccc(F)c2)n1)c1cccc(Cl)c1Cl` (stereo not shown) [Example 314]: the concentration for half-maximal inhibition (IC50) was under 100 nM.
`O=C(O)C[C@H](NC(=O)c1cc(O)n(-c2ccccc2F)n1)c1ccccc1F` [Example 118]: the half-inhibitory concentration (IC50) is 100 to 1000 nM.
Consider `COc1ccc([C@H](CC(=O)O)NC(=O)c2cc(O)n(-c3ccccc3F)n2)cc1` [Example 398], for which the half-maximal inhibitory concentration (IC50) lay in the range of 100 to 1000 nM.
Consider `Cc1ccc(C(CC(=O)O)NC(=O)c2cc(O)n(-c3ccc(F)c(Cl)c3)n2)c(C)c1` (stereo not shown) [Example 91], for which the IC50 lay in the range of 1000 to 30000 nM.
For `O=C(O)C[C@H](NC(=O)c1cc(O)n(-c2ccc(F)cc2)n1)c1cccc(C(F)(F)F)c1` [Example 355], the IC50 was in the range of 100 to 1000 nM.
For the compound `Cc1ccc(C)c(C(CC(=O)O)NC(=O)c2cc(O)n(-c3ccccc3)n2)c1` (stereo not shown) [Example 378], the half-inhibitory concentration (IC50) is 100 to 1000 nM.
Turning to `O=C(O)CC(NC(=O)c1cc(O)n(-c2ccccc2Cl)n1)c1ccc(-n2ccnc2)cc1` (stereo not shown) [Example 116], the IC50 was in the range of 1000 to 30000 nM.
With `COc1cccc(C(CC(=O)O)NC(=O)c2cc(O)n(-c3cc(C)ccc3C)n2)c1` (stereo not shown) [Example 28], the half-maximal inhibitory concentration (IC50) lay within 1000 to 30000 nM.
As for `O=C(O)C[C@H](NC(=O)c1cc(O)n(-c2ccc(F)cc2)n1)c1ccccc1C(F)(F)F` [Example 367], the IC50 lay within 100 to 1000 nM.
With `O=C(O)C[C@H](NC(=O)c1cc(O)n(-c2ccccc2Cl)n1)c1ccccc1F` [Example 107], the IC50 was in the range of 100 to 1000 nM.
With `Cc1cccc(C(CC(=O)O)NC(=O)c2cc(O)n(-c3cc(C)ccc3C)n2)c1` (stereo not shown) [Example 51], the concentration for half-maximal inhibition (IC50) lay in the range of 1000 to 30000 nM.
As for `O=C(O)C[C@H](NC(=O)c1cc(O)n(-c2ccc(Cl)cc2)n1)c1cccc(Cl)c1Cl` [Example 277], the 50% inhibitory concentration (IC50) is 100 to 1000 nM.
As to `COc1ccc(C(CC(=O)O)NC(=O)c2cc(O)n(-c3ccccc3F)n2)c(F)c1` (stereo not shown) [Example 133], the IC50 lay in the range of 100 to 1000 nM.
Turning to `O=C(O)CC(NC(=O)c1cc(O)n(-c2ccc(F)cc2F)n1)c1cccc(Oc2ccc(Cl)cc2)c1` (stereo not shown) [Example 386], the 50% inhibitory concentration (IC50) was in the range of 100 to 1000 nM.
Same read-out and setting: the figure for `O=C(O)C[C@H](NC(=O)c1cc(O)n(-c2cccc(F)c2)n1)c1ccc(F)cc1` [Example 311] is 100 to 1000 nM; for `CC(C)C(CC(=O)O)NC(=O)c1cc(O)n(-c2ccccc2)n1` (stereo not shown) [Example 13] it is 1000 to 30000 nM.

The test is the same for the next values; noted with them: recombinant human cathepsin A 833 ng/ml, Bodipy FL-labeled bradykinin 2 μM, pH 5.5; read-out: CATH-A IC50.
Turning to `Cc1c(F)cccc1C(CC(=O)O)NC(=O)c1cc(O)n(-c2ccccc2)n1` (stereo not shown) [Example 494, 3-(3-Fluoro-2-methyl-phenyl)-3-[(5-hydroxy-1-phenyl-1H-pyrazole-3-carbonyl)-amino]-propionic acid], the IC50 is 142 nM.
The same measure, in the same setting: the figure for `Cc1ccccc1[C@H](CC(=O)O)NC(=O)c1cc(OC[C@H](O)C(C)(C)C)n(-c2ccccc2F)n1` (single isomer, unassigned) [Example 745] is 4.7 nM; for `O=C(O)CC(NC(=O)c1cc(O)n(-c2ccc(F)cc2)n1)c1cc(Cl)ccc1Cl` (stereo not shown) [Example 493, 3-(2,5-Dichloro-phenyl)-3-{[1-(4-fluoro-phenyl)-5-hydroxy-1H-pyrazole-3-carbonyl]-amino}-propionic acid] it is 246 nM; for `O=C(O)CC(NC(=O)c1cc(O)n(-c2ccccc2)n1)c1ccc(-n2cncn2)cc1` (stereo not shown) [Example 563, 3-[(5-Hydroxy-1-phenyl-1H-pyrazole-3-carbonyl)-amino]-3-(4-[1,2,4]triazol-1-yl-phenyl)-propionic acid] it is 1740 nM.
The same measure, in the same setting: the figure for `O=C(O)CC(NC(=O)c1cc(O)n(-c2ccccc2F)n1)c1ccc(N2CCCC2)cc1` (stereo not shown) [Example 566, 3-{[1-(2-Fluoro-phenyl)-5-hydroxy-1H-pyrazole-3-carbonyl]-amino}-3-(4-pyrrolidin-1-yl-phenyl)-propionic acid] is 2990 nM; for `Cc1c(F)cccc1C(CC(=O)O)NC(=O)c1cc(O)n(-c2ccc(F)cc2F)n1` (stereo not shown) [Example 447, 3-{[1-(2,4-Difluoro-phenyl)-5-hydroxy-1H-pyrazole-3-carbonyl]-amino}-3-(3-fluoro-2-methyl-phenyl)-propionic acid] it is 114 nM.

Still in this test, the particulars now being: recombinant human cathepsin A; read-out: Activity (2): Cathepsin A inhibitory activity, IC50 class.
Regarding `Cc1c(F)cccc1C(CC(=O)O)NC(=O)c1cc(O)n(-c2ccccc2)n1` (stereo not shown) [Example 494, 3-(3-Fluoro-2-methyl-phenyl)-3-[(5-hydroxy-1-phenyl-1H-pyrazole-3-carbonyl)-amino]-propionic acid], the IC50 was in the range of 100 to 1000 nM.
As for `Cc1ccccc1[C@H](CC(=O)O)NC(=O)c1cc(O)n(Cc2ccccc2)n1` [Example 533], the IC50 lay within 100 to 1000 nM.
Take `O=C(O)CC(NC(=O)c1cc(O)n(-c2ccc(F)cc2)n1)c1cc(Cl)ccc1Cl` (stereo not shown) [Example 493, 3-(2,5-Dichloro-phenyl)-3-{[1-(4-fluoro-phenyl)-5-hydroxy-1H-pyrazole-3-carbonyl]-amino}-propionic acid]: the IC50 lay within 100 to 1000 nM.
With `Cc1cccc(C(CC(=O)O)NC(=O)c2cc(O)n(-c3ccccc3F)n2)c1C` (stereo not shown) [Example 405], the IC50 was under 100 nM.
As to `COc1cc(C(=O)N[C@@H](CC(=O)NCC(C)(C)CO)c2ccccc2C)nn1-c1ccccc1F` [Example 925, 1-(2-Fluoro-phenyl)-5-methoxy-1H-pyrazole-3-carboxylic acid [(S)-2-(3-hydroxy-2,2-dimethyl-propylcarbamoyl)-1-o-tolyl-ethyl]-amide], the IC50 fell in the range of 1000 to 30000 nM.
Turning to `Cc1c(F)cccc1C(CC(=O)O)NC(=O)c1cc(O)n(-c2ccc(F)cc2F)n1` (stereo not shown) [Example 447, 3-{[1-(2,4-Difluoro-phenyl)-5-hydroxy-1H-pyrazole-3-carbonyl]-amino}-3-(3-fluoro-2-methyl-phenyl)-propionic acid], the IC50 lay within 100 to 1000 nM.
Consider `COc1cc(C(=O)N[C@@H](CC(=O)NCc2nnn[nH]2)c2ccccc2C)nn1-c1ccccc1F` [Example 928], for which the IC50 was 100 to 1000 nM.
As to `O=C(O)C[C@H](NC(=O)c1cc(O)n(-c2cccc(F)c2)n1)c1ccccc1F` [Example 433], the concentration for half-maximal inhibition (IC50) was in the range of 100 to 1000 nM.
For `O=C(O)CC(NC(=O)c1cc(O)n(-c2ccccc2F)n1)c1ccccc1` (stereo not shown) [Example 535], the IC50 lay within 100 to 1000 nM.
On to `O=C(O)CC(NC(=O)c1cc(O)n(-c2cccc(F)c2)n1)c1cc(Cl)ccc1Cl` (stereo not shown) [Example 488], for which the IC50 was in the range of 100 to 1000 nM.
Turning to `COc1cccc([C@H](CC(=O)O)NC(=O)c2cc(O)n(-c3cccc(Cl)c3)n2)c1OC` [Example 417], the IC50 is 100 to 1000 nM.
Still for that read-out and setting: the figure for `O=C(O)CC(NC(=O)c1cc(O)n(-c2cccc(F)c2)n1)c1ccc(-c2ccccn2)cc1` (stereo not shown) [Example 521] is 100 to 1000 nM.

The values are drawn from US8664257B2, “Oxygen-substituted 3-heteroaroylamino-propionic acid derivatives and their use as pharmaceuticals” (Sanofi, priority 2010, dated 2014).
